Experimental data taken from ChEMBL document CHEMBL1154989, “Towards the second generation of Boceprevir: Dithianes as an alternative P2 substituent for 2,2-dimethyl cycloproyl proline in HCV NS3 protease inhibitors” (Bioorg Med Chem Lett, 2010).
pKi: −log10 of the molar value. The source made the active and inactive calls. No cut-off for these calls is given here.

How the values were obtained:
[1] = Inhibition of HCV NS3/4A serine protease by continuous spectrophotometric assay; design: species or system Hepacivirus hominis
[2] = Selectivity for HCV NS3 serine protease over human neutrophil elastase
[3] = AUC in rat at 10 mg/kg, po; format: ADME, organism-based; design: dose 10 mg/kg, route oral; conditions: plasma
Hepatitis C virus = test: Antiviral activity against HCV replicon expressing NS3-5 infected in HuH7 cells assessed as inhibition of viral replication after 3 days by ELISA; format: functional, organism-based, Hepacivirus hominis, Huh-7

pKi [1] | Ratio [2] | AUC [3] | EC90 (Hepatitis C virus; Hepatitis C virus, Huh-7, 72 h, read-out: EC90) | EC90 (Hepatitis C virus; huh-7) | SMILES
7.89 | 1500 | 0.2 µM·h |  |  | C=CCNC(=O)C(=O)C(CCCC)NC(=O)[C@@H]1CC2(CN1C(=O)[C@@H](NC(=O)N[C@@H](CN1C(=O)CC(C)(C)CC1=O)C(C)(C)C)C(C)(C)C)SCCS2 (stereo not given in full)
8.22 | 240 | 0.04 µM·h |  |  | C=CCNC(=O)C(=O)C(CCC)NC(=O)[C@@H]1CC2(CN1C(=O)[C@@H](NC(=O)N[C@@H](CN1C(=O)CC(C)(C)CC1=O)C(C)(C)C)C1(C)CCCCC1)SCCS2 (stereo not given in full)
7.08 | 40 |  |  |  | C=CCNC(=O)C(=O)C(CC1CC1)NC(=O)[C@@H]1CC2(CN1C(=O)[C@@H](NC(=O)N[C@@H](C(=O)OC1CC1)C(C)C)C(C)(C)C)SCCS2 (stereo not given in full)
6.40 |  |  |  |  | CC(C)(C)NC(=O)N[C@H](C(=O)N1CC2(C[C@H]1C(=O)NC(CC1CCC1)C(=O)C(N)=O)SCCS2)C1CCCCC1 (stereo not given in full)
8.30 | 630 | 0.06 µM·h |  |  | C=CCNC(=O)C(=O)C(CCC)NC(=O)[C@@H]1CC2(CN1C(=O)[C@@H](NC(=O)N[C@@H](CN1C(=O)CC(C)(C)CC1=O)C(C)(C)C)C(C)(C)C)SCCS2 (stereo not given in full)
7.14 | 15 |  |  |  | C=CCNC(=O)C(=O)C(CC1CC1)NC(=O)[C@@H]1CC2(CN1C(=O)[C@@H](NC(=O)N[C@@H](C(=O)OC1CC1)C(C)C)C1CCCCC1)SCCS2 (stereo not given in full)
6.70 |  |  |  |  | CC(C)(C)NC(=O)N[C@H](C(=O)N1CC2(C[C@H]1C(=O)NC(CC1CC1)C(=O)C(N)=O)SCCS2)C1CCCCC1 (stereo not given in full)
7.85 |  | 0.14 µM·h | 350 nM |  | CC(C)(C)NC(=O)N[C@H](C(=O)N1C[C@H]2[C@@H]([C@H]1C(=O)NC(CC1CCC1)C(=O)C(N)=O)C2(C)C)C(C)(C)C (stereo not given in full) [BOCEPREVIR]
7.48 | 40 | 0.77 µM·h |  |  | C=CCNC(=O)C(=O)C(CC1CC1)NC(=O)[C@@H]1CC2(CN1C(=O)[C@@H](NC(=O)NC1(CS(=O)(=O)C(C)(C)C)CCCCC1)C(C)(C)C)SCCS2 (stereo not given in full)
7.74 | 200 | 0.2 µM·h |  |  | C=CCNC(=O)C(=O)C(CC1CC1)NC(=O)[C@@H]1CC2(CN1C(=O)[C@@H](NC(=O)N[C@@H](CN1C(=O)CC(C)(C)CC1=O)C(C)(C)C)C1(C)CCCCC1)SCCS2 (stereo not given in full)
7.72 | 10 | 1.34 µM·h |  |  | C=CCNC(=O)C(=O)C(CCC)NC(=O)[C@@H]1CC2(CN1C(=O)[C@@H](NC(=O)NC1(CS(=O)(=O)C(C)(C)C)CCCCC1)C1(C)CCCCC1)SCCS2 (stereo not given in full)
7.96 | 50 | 0.57 µM·h |  |  | C=CCNC(=O)C(=O)C(CCC)NC(=O)[C@@H]1CC2(CN1C(=O)[C@@H](NC(=O)NC1(CS(=O)(=O)C(C)(C)C)CCCCC1)C(C)(C)C)SCCS2 (stereo not given in full)
6.22 |  |  |  |  | CC(C)(C)NC(=O)N[C@H](C(=O)N1CC2(C[C@H]1C(=O)NC(CC1CCC1)C(=O)C(N)=O)SCCS2)C(C)(C)C (stereo not given in full)
7.68 | 290 |  |  |  | C=CCNC(=O)C(=O)C(CC1CC1)NC(=O)[C@@H]1CC2(CN1C(=O)[C@@H](NC(=O)N[C@@H](CN1C(=O)CC(C)(C)CC1=O)C(C)(C)C)C(C)(C)C)SCCS2 (stereo not given in full)
6.52 |  |  |  |  | CC(C)(C)NC(=O)N[C@H](C(=O)N1CC2(C[C@H]1C(=O)NC(CC1CC1)C(=O)C(N)=O)SCCS2)C(C)(C)C (stereo not given in full)
7.74 | 130 | 1.69 µM·h |  |  | C=CCNC(=O)C(=O)C(CC1CC1)NC(=O)[C@@H]1CC2(CN1C(=O)[C@@H](NC(=O)NC1(CS(=O)(=O)C(C)(C)C)CCCCC1)C(C)(C)C)SCCCS2 (stereo not given in full)
8.15 | 128 | 2.56 µM·h |  |  | C=CCNC(=O)C(=O)C(CCC)NC(=O)[C@@H]1CC2(CN1C(=O)[C@@H](NC(=O)NC1(CS(=O)(=O)C(C)(C)C)CCCCC1)C(C)(C)C)SCCCS2 (stereo not given in full)
6.15 | inactive |  |  | Not Active | C=CCNC(=O)C(=O)C(CC1CC1)NC(=O)[C@@H]1CC2(CN1C(=O)[C@@H](NC(=O)NC(C)(C)C)C(C)(C)C)SCCS2 (stereo not given in full)
7.89 | 1700 |  |  |  | C=CCNC(=O)C(=O)C(CCC1CC1)NC(=O)[C@@H]1CC2(CN1C(=O)[C@@H](NC(=O)N[C@@H](CN1C(=O)CC(C)(C)CC1=O)C(C)(C)C)C(C)(C)C)SCCS2 (stereo not given in full)
